PubChem BioAssay AID1963860 (Molecular Pharmacology Branch, DTP, NCI, 2024)

Test system: CN0375-F725-PDC KRAS spheroid viability
Experiment: Anticancer human tumor CN0375-F725-PDC patient-derived colon carcinoma cell line growth inhibition [KRAS2]
Details: spheroids with HUVEC and MSC; for IC50: curve of first compound; for viability, T/C: stronger effect = lower value
In short: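 Combination screen of spheroid viability in tumor-cell co-cultures with endothelial (HUVEC) and mesenchymal stem cell stroma. Each agent was tested in half-log dilutions, topping at clinical Cmax or at 10 microM without a known Cmax.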

[1] = second compound 0.0316 µM, first compound 0.01 µM
[2] = second compound 0.0316 µM, first compound 0.0316 µM
[3] = second compound 0.0316 µM, first compound 0.1 µM
[4] = second compound 0.1 µM, first compound 0.01 µM
[5] = second compound 0.1 µM, first compound 0.0316 µM
[6] = second compound 0.1 µM, first compound 0.1 µM
[7] = second compound 0.316 µM, first compound 0.01 µM
[8] = second compound 0.316 µM, first compound 0.0316 µM
[9] = second compound 0.316 µM, first compound 0.1 µM
[10] = second compound 1 µM, first compound 0.01 µM
[11] = second compound 1 µM, first compound 0.0316 µM
[12] = second compound 1 µM, first compound 0.1 µM
[13] = second compound 3.16 µM, first compound 0.01 µM
[14] = second compound 3.16 µM, first compound 0.0316 µM
[15] = second compound 3.16 µM, first compound 0.1 µM
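Also: spheroids exposed to agents for 7 days.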

**Q.** Which IC50 (second compound 0.0316 µM) does the source give for CC(=O)OC12COC1CC(O)C1(C)C(=O)C(O)C3=C(C)C(OC(=O)C(O)C(NC(=O)OC(C)(C)C)c4ccccc4)CC(O)(C(OC(=O)c4ccccc4)C21)C3(C)C (stereo not given) + C=CC(=O)N1CCN(c2nc(OCC3CCCN3C)nc3c2CCN(c2cccc4cccc(C)c24)C3)CC1CC#N here?
**A.** Its IC50 is over 3.16 µM.

**Q.** What about the IC50 (second compound 0.1 µM) of the same molecule?
**A.** The IC50 was over 3.16 µM.

**Q.** What about the IC50 (second compound 0.316 µM) of the same molecule?
**A.** Its IC50 is over 3.16 µM.

**Q.** And the IC50 (second compound 1 µM)?
**A.** The IC50 was over 3.16 µM.

**Q.** And the IC50 (second compound 3.16 µM)?
**A.** The IC50 was over 3.16 µM.

**Q.** And the viability, T/C [1]?
**A.** Its viability, T/C is 99.3%.

**Q.** And the viability, T/C [2]?
**A.** The viability, T/C was 99.2%.

**Q.** What about the viability, T/C [3] of the same molecule?
**A.** The viability, T/C was 87.2%.

**Q.** And the viability, T/C (second compound 0.0316 µM, first compound 0.316 µM)?
**A.** The viability, T/C was 82.5%.

**Q.** And the viability, T/C (second compound 0.0316 µM, first compound 1 µM)?
**A.** The viability, T/C was 81.8%.

**Q.** What about the viability, T/C (second compound 0.0316 µM, first compound 3.16 µM) of the same molecule?
**A.** Its viability, T/C is 79.2%.

**Q.** And the viability, T/C [4]?
**A.** Its viability, T/C is 104%.

**Q.** And the viability, T/C [5]?
**A.** The viability, T/C was 102%.

**Q.** And the viability, T/C [6]?
**A.** Its viability, T/C is 86.3%.

**Q.** What about the viability, T/C (second compound 0.1 µM, first compound 0.316 µM) of the same molecule?
**A.** Its viability, T/C is 87%.

**Q.** What about the viability, T/C (second compound 0.1 µM, first compound 1 µM) of the same molecule?
**A.** The viability, T/C was 79.5%.

**Q.** What about the viability, T/C (second compound 0.1 µM, first compound 3.16 µM) of the same molecule?
**A.** Its viability, T/C is 76.4%.

**Q.** And the viability, T/C [7]?
**A.** The viability, T/C was 100%.

**Q.** What about the viability, T/C [8] of the same molecule?
**A.** Its viability, T/C is 100%.

**Q.** And the viability, T/C [9]?
**A.** Its viability, T/C is 87.3%.

**Q.** And the viability, T/C (second compound 0.316 µM, first compound 0.316 µM)?
**A.** The viability, T/C was 85.2%.

**Q.** And the viability, T/C (second compound 0.316 µM, first compound 1 µM)?
**A.** Its viability, T/C is 79.3%.

**Q.** And the viability, T/C (second compound 0.316 µM, first compound 3.16 µM)?
**A.** The viability, T/C was 75.9%.

**Q.** What about the viability, T/C [10] of the same molecule?
**A.** The viability, T/C was 96.7%.

**Q.** And the viability, T/C [11]?
**A.** Its viability, T/C is 91.8%.

**Q.** And the viability, T/C [12]?
**A.** Its viability, T/C is 91.6%.

**Q.** What about the viability, T/C (second compound 1 µM, first compound 0.316 µM) of the same molecule?
**A.** The viability, T/C was 78.8%.

**Q.** What about the viability, T/C (second compound 1 µM, first compound 1 µM) of the same molecule?
**A.** Its viability, T/C is 78.6%.

**Q.** What about the viability, T/C (second compound 1 µM, first compound 3.16 µM) of the same molecule?
**A.** The viability, T/C was 73.6%.

**Q.** What about the viability, T/C [13] of the same molecule?
**A.** Its viability, T/C is 96.2%.

**Q.** And the viability, T/C [14]?
**A.** Its viability, T/C is 98.9%.

**Q.** What about the viability, T/C [15] of the same molecule?
**A.** Its viability, T/C is 93.7%.

**Q.** And the viability, T/C (second compound 3.16 µM, first compound 0.316 µM)?
**A.** Its viability, T/C is 83.5%.

**Q.** And the viability, T/C (second compound 3.16 µM, first compound 1 µM)?
**A.** Its viability, T/C is 88.3%.

**Q.** What about the viability, T/C (second compound 3.16 µM, first compound 3.16 µM) of the same molecule?
**A.** Its viability, T/C is 79%.

**Q.** For CN(C)C/C=C/C(=O)Nc1cc2c(Nc3ccc(F)c(Cl)c3)ncnc2cc1O[C@H]1CCOC1 + C=CC(=O)N1CCN(c2nc(OCC3CCCN3C)nc3c2CCN(c2cccc4cccc(C)c24)C3)CC1CC#N, which IC50 (second compound 0.0316 µM) is on record?
**A.** Its IC50 is over 0.1 µM.

**Q.** And the IC50 (second compound 0.1 µM)?
**A.** The IC50 was over 0.1 µM.

**Q.** And the IC50 (second compound 0.316 µM)?
**A.** The IC50 was over 0.1 µM.

**Q.** And the IC50 (second compound 1 µM)?
**A.** Its IC50 is over 0.1 µM.

**Q.** What about the IC50 (second compound 3.16 µM) of the same molecule?
**A.** Its IC50 is under 0.000316 µM.

**Q.** What about the viability, T/C (second compound 0.0316 µM, first compound 0.000316 µM) of the same molecule?
**A.** The viability, T/C was 107%.

**Q.** What about the viability, T/C (second compound 0.0316 µM, first compound 0.001 µM) of the same molecule?
**A.** The viability, T/C was 94.9%.

**Q.** What about the viability, T/C (second compound 0.0316 µM, first compound 0.00316 µM) of the same molecule?
**A.** The viability, T/C was 88.8%.

**Q.** And the viability, T/C [1]?
**A.** The viability, T/C was 84.8%.

**Q.** And the viability, T/C [2]?
**A.** Its viability, T/C is 82.7%.

**Q.** And the viability, T/C [3]?
**A.** The viability, T/C was 76.4%.

**Q.** What about the viability, T/C (second compound 0.1 µM, first compound 0.000316 µM) of the same molecule?
**A.** Its viability, T/C is 105%.

**Q.** What about the viability, T/C (second compound 0.1 µM, first compound 0.001 µM) of the same molecule?
**A.** The viability, T/C was 98.6%.

**Q.** And the viability, T/C (second compound 0.1 µM, first compound 0.00316 µM)?
**A.** Its viability, T/C is 88%.

**Q.** What about the viability, T/C [4] of the same molecule?
**A.** The viability, T/C was 87.7%.

**Q.** What about the viability, T/C [5] of the same molecule?
**A.** The viability, T/C was 80%.

**Q.** What about the viability, T/C [6] of the same molecule?
**A.** Its viability, T/C is 77.5%.

**Q.** And the viability, T/C (second compound 0.316 µM, first compound 0.000316 µM)?
**A.** The viability, T/C was 102%.

**Q.** And the viability, T/C (second compound 0.316 µM, first compound 0.001 µM)?
**A.** Its viability, T/C is 101%.

**Q.** What about the viability, T/C (second compound 0.316 µM, first compound 0.00316 µM) of the same molecule?
**A.** The viability, T/C was 84.2%.

**Q.** And the viability, T/C [7]?
**A.** Its viability, T/C is 81.5%.

**Q.** And the viability, T/C [8]?
**A.** Its viability, T/C is 73.4%.

**Q.** And the viability, T/C [9]?
**A.** Its viability, T/C is 76.7%.

**Q.** And the viability, T/C (second compound 1 µM, first compound 0.000316 µM)?
**A.** The viability, T/C was 90.6%.

**Q.** And the viability, T/C (second compound 1 µM, first compound 0.001 µM)?
**A.** The viability, T/C was 96.7%.

**Q.** And the viability, T/C (second compound 1 µM, first compound 0.00316 µM)?
**A.** The viability, T/C was 83.4%.

**Q.** What about the viability, T/C [10] of the same molecule?
**A.** The viability, T/C was 75.9%.

**Q.** What about the viability, T/C [11] of the same molecule?
**A.** Its viability, T/C is 75.6%.

**Q.** And the viability, T/C [12]?
**A.** The viability, T/C was 74.1%.

**Q.** And the viability, T/C (second compound 3.16 µM, first compound 0.000316 µM)?
**A.** Its viability, T/C is 30.9%.

**Q.** What about the viability, T/C (second compound 3.16 µM, first compound 0.001 µM) of the same molecule?
**A.** The viability, T/C was 24.6%.

**Q.** And the viability, T/C (second compound 3.16 µM, first compound 0.00316 µM)?
**A.** Its viability, T/C is 8.56%.

**Q.** And the viability, T/C [13]?
**A.** The viability, T/C was 9.52%.

**Q.** What about the viability, T/C [14] of the same molecule?
**A.** Its viability, T/C is 10.6%.

**Q.** What about the viability, T/C [15] of the same molecule?
**A.** Its viability, T/C is 10.4%.
